Here are results for five molecules from US20230405075A1, “PR[…] EXTRACT OR ITS ISOLATED ALKALOIDS AND CANNABIS EXTRACT OR ITS ISOLATED CANNABINOIDS, AND COSMETIC AND/OR PHARMACEUTICAL USE THEREOF” (HERBA INVEST, PTE. LTD., priority 2020, published 2023).

The data set in a line: Franz cell diffusion assay, transcutaneous permeation. As to conditions: in the presence of the combined extracts. Type of data set: in vitro ADME, porcine. Here is the method: The transcutaneous permeation of w/o creams according to Examples 2 and 3 were evaluated by using the Franz cell diffusion assay and compared with the permeation of w/o creams containing Mitragyna alkaloids only and Cannabis cannabinoids only, according to examples 4 and 5.
As known, Franz cell diffusion assay is the most common and reliable method to evaluate the transcutaneous permeation of molecules. Such an assay is well known in the art and a detailed description is not necessary.
The assay conditions were as follows: • cells used: 0.9 and 1.4 mm diameter. • membrane: porcine ear skin, 1 mm thickness. • temperature of incubation: 32° C.
The results of the evaluations are shown in FIG. 1, where the different bars relate to: • a cream according to Example 4, with 1% Mitragyna alkaloids; • a cream according to Example 5, with 1% cannabinoids; • a cream according to Example 2, containing 0.5% purified Mitragyna alkaloids and 0.5% cannabinoids; • a cream with enhancer according to Example 3, also containing 0.5% purified Mitragyna alkaloids and 0.5% cannabinoids, • respectively.
The particular w/o cream according to Example 2 used in the evaluation of transcutaneous permeation had the following composition (percentages in weight): • Diisostearoyl Polyglyceryl-3 Dimer Dilinoleate: 3% • Synthetic Beeswax: 0.2% • Hydrogenated Castor Oil: 0.3% • Paraffinum liquidum: 7% • Isopropyl Myristate: 7% • Hydrogenated polyisobutene: 7.5% • Aqua (water): 60% • Magnesium sulphate heptahydrate: 1% • Mitragyna purified extract (or isolated alkaloids) alcoholic solution: the amount/concentration resulting in a 0.5% alkaloid concentration of in the final formulation; • Cannabis purified extract (or isolated cannabinoids) alcoholic solution: the amount/concentration resulting in a 0.5% […] concentration in the final formulation.
As to `CC[C@@H]1CN2CCc3c([nH]c4cccc(OC)c34)[C@H]2C[C@@H]1/C(=C\OC)C(=O)OC` [speciociliatine], the “concentration detected in Franz cell receptor (order of selective passage)” value is “highest concentrations detected”. Consider `C=C(C)[C@@H]1CCC(C)=C[C@H]1c1c(O)cc(CCCCC)cc1O` [cannabidiol], for which the “concentration detected in Franz cell receptor (order of selective passage)” value is on record as “increase in concentration”. As to `CC[C@@H]1CN2CCc3c([nH]c4cccc(OC)c34)[C@@H]2C[C@@H]1/C(=C\OC)C(=O)OC` [mitragynine], the “concentration detected in Franz cell receptor (order of selective passage)” value was “in lower percentage”. On to `C=C[C@H]1CN2CCc3c([nH]c4cccc(OC)c34)[C@@H]2C[C@@H]1/C(=C\OC)C(=O)OC` [paynantheine], for which the “concentration detected in Franz cell receptor (order of selective passage)” value was “in lower percentage”.

As to `C=C[C@H]1CN2CCc3c([nH]c4cccc(OC)c34)[C@H]2C[C@@H]1/C(=C\OC)C(=O)OC` [isopaynantheine], the “concentration detected in Franz cell receptor (order of selective passage)” value is “highest concentrations detected”.
